The conditions of series [1]: cited from earlier work.
A short description of series [2]: Water-solubility of human C-peptide. The class given is physicochemical. The following applies: observed when preparing formulations; phase-separation methods gave high losses of active substance.

SMILES strings stand for the structures.

As for `CC(C)C[C@H](NC(=O)[C@H](C)NC(=O)[C@H](CC(C)C)NC(=O)[C@@H]1CCCN1C(=O)[C@H](CCC(N)=O)NC(=O)[C@H](CC(C)C)NC(=O)[C@H](CO)NC(=O)CNC(=O)[C@H](C)NC(=O)CNC(=O)[C@@H]1CCCN1C(=O)CNC(=O)CNC(=O)CNC(=O)[C@H](CC(C)C)NC(=O)[C@H](CCC(=O)O)NC(=O)[C@@H](NC(=O)[C@H](CCC(N)=O)NC(=O)CNC(=O)[C@@H](NC(=O)[C@H](CCC(N)=O)NC(=O)[C@H](CC(C)C)NC(=O)[C@H](CC(=O)O)NC(=O)[C@H](CCC(=O)O)NC(=O)[C@H](C)NC(=O)[C@@H](N)CCC(=O)O)C(C)C)C(C)C)C(=O)N[C@@H](CCC(=O)O)C(=O)NCC(=O)N[C@@H](CO)C(=O)N[C@@H](CC(C)C)C(=O)N[C@@H](CCC(N)=O)C(=O)O` [C-peptide], the “half-life of plasma in humans” value in series [1] is “about 40 minutes”. In series [2], the water-solubility entry is on record as “strong water-solubility”.
